The results in this text go back to PubChem BioAssay (NCI).

Holding throughout (assay): growth of human tumour cells (NCI), 48 h
Experiment [1] concerns SF-295 CNS.
Experiment [2] concerns HS 578T breast.
The test system of experiment [3] is UACC-62 melanoma.
Experiment [4] relates to DU-145 prostate.
The test system of experiment [5] is MOLT-4 leukemia.
In experiment [6] the test system is T-47D breast.
Experiment [7] concerns M14 melanoma.
Experiment [8] has as its system K-562 leukemia.
Experiment [9] relates to HCC-2998 colon.
In experiment [10] the test system is HOP-92 NSCLC.
Experiment [11] relates to NCI-H522 lung.
Experiment [12] has as its system OVCAR-5 ovarian.
Experiment [13] concerns NCI-H23 lung.
In experiment [14] the test system is MDA-MB-231 breast.
Experiment [15] has as its system SNB-19 CNS.
The test system of experiment [16] is SK-OV-3 ovarian.
For experiment [17], the system named is SK-MEL-5 melanoma.
In experiment [18] the test system is A549 NSCLC.

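1) Cells in 96-well plates. 2) Compound, 48 h, 5 concentrations. 3) Linear interpolation between surrounding doses. 4) Unreached endpoint = highest concentration. At the TGI there is no net growth.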

Regarding `CN(C)c1ccc(/C=C(\NC(=O)c2ccccc2)C(=O)Nc2ccccc2C(=O)O)cc1`, the TGI in experiment [1], in [2], in [3], in experiment [4], in experiment [5] and in [6] was above 100 µM throughout. In addition, the TGI in experiment [7], in experiment [8], in [9], in experiment [10], in experiment [11] and in experiment [12] was above 100 µM each time. For the same compound, the TGI in experiment [13], in experiment [14], in [15], in experiment [16], in [17] and in [18] was above 100 µM in each case.

On to `CC1C/C(=N\N(C)C)C(C#N)(C#N)C1(C#N)C#N` (stereo unspecified), for which the TGI in experiment [1] was 43.2 µM; in experiment [2], above 88.3 µM; in experiment [3], 39.5 µM; in [4], 34 µM; in [5] it was 6.9 µM; in experiment [6], 37.7 µM. The TGI in experiment [7] was 31.7 µM; in [8] it was above 100 µM; in experiment [9], 31.5 µM; in [10] it was 11.6 µM; in experiment [11] it was 4.13 µM; in [12], 48.5 µM. The TGI is 43.1 µM in experiment [13]; 1.32 µM in experiment [14]; above 70.6 µM in experiment [15]; above 67.3 µM in [16]; 44.2 µM in experiment [17]; 69.5 µM in experiment [18].

For `CCOC(=O)c1cccc([N+](=O)[O-])c1N`, the TGI in experiment [1], in [2], in [3], in [4], in experiment [5] and in [6] was above 100 µM each time. The TGI in experiment [7], in experiment [8], in [9], in experiment [10], in experiment [11] and in [12] was above 100 µM each time. Besides, the TGI in [13], in experiment [14], in experiment [15], in [16], in [17] and in experiment [18] was above 100 µM each time.

`O=C(Nc1ccccc1C(=O)O)/C(=C/c1ccccc1)NC(=O)c1ccccc1`: the TGI in experiment [1], in [2], in experiment [3], in experiment [4], in experiment [5] and in [6] was above 100 µM throughout. For the same compound, the TGI in experiment [7], in experiment [8], in [9], in experiment [10], in [11] and in [12] was above 100 µM in each case. Also, the TGI in experiment [13], in experiment [14], in experiment [15], in experiment [16], in experiment [17] and in experiment [18] was above 100 µM in each case.

Consider `CCCCCC(=O)OCC1(CO)C/C(=C\CC(C(C)C)C(C)C)C(=O)O1` (stereo unspecified), for which the TGI was above 100 µM in [1]; above 100 µM in experiment [2]; above 100 µM in [3]; above 100 µM in experiment [4]; 61.8 µM in experiment [5]; above 100 µM in experiment [6]. For the same compound, the TGI was above 100 µM in experiment [7]; 77.5 µM in [8]; above 100 µM in experiment [9]; above 100 µM in [10]; 81.3 µM in [11]; above 100 µM in [12]. Further, the TGI in experiment [13], in experiment [14], in experiment [15], in experiment [16], in [17] and in [18] was above 100 µM each time.

As for `CC1OC(OC2C(O)COC(OC3C(C)OC(OC4C(OC(=O)[C@]56CCC(C)(C)C[C@@H]5C5=CCC7[C@@]8(C)C[C@H](O)[C@H](OC9OC(CO)C(O)C(OC%10OC(CO)C(O)C(O)C%10O)C9O)[C@@](C)(CO)[C@@H]8CC[C@@]7(C)[C@]5(C)CC6)OCC(O)C4O)C(O)C3OC3OCC(O)C(O)C3O)C2O)C(O)C(O)C1O` (stereo partly specified), the TGI in experiment [1] came out at 9.81 µM; in experiment [2] it was 34.8 µM; in experiment [3], 12.6 µM; in experiment [4] it was 19.7 µM; in experiment [5], 36.1 µM; in experiment [6] it was 14 µM. In addition, the TGI in [7] is 3.58 µM; in [8] it was above 52.3 µM; in [9], 4.44 µM; in experiment [10], 31.1 µM; in experiment [11] it was 26.4 µM; in experiment [12], 22.8 µM. The TGI stood at 10.4 µM in experiment [13]; 8.87 µM in [14]; 20.3 µM in [15]; 29.4 µM in [16]; 15 µM in [17]; 4.29 µM in [18].

With `CC1(C)CN=C(Nc2ccc(Cl)cc2)S1`, the TGI in experiment [1], in experiment [2], in experiment [3], in experiment [4], in experiment [5] and in [6] was above 100 µM each time. Besides, the TGI in experiment [7], in experiment [8], in experiment [9], in experiment [10], in experiment [11] and in [12] was above 100 µM each time. Further, the TGI in experiment [13], in [14], in experiment [15], in experiment [16], in [17] and in experiment [18] was above 100 µM each time.
